Results published in PMC7487564 (Cell Communication and Signaling : CCS, 2020).
One block for each molecule: values may come before it.

Tests used:
PVR = target: T1, PVR (Homo sapiens, UniProt P15151); assay: Biolayer interferometry-based (BLI) binding assay; details: for Kd: read-out: KD to PVR protein (BLI)
T1 construct: purchased ACRO Biosystem CD5-H82E3
T1 sequence (P15151 21-417): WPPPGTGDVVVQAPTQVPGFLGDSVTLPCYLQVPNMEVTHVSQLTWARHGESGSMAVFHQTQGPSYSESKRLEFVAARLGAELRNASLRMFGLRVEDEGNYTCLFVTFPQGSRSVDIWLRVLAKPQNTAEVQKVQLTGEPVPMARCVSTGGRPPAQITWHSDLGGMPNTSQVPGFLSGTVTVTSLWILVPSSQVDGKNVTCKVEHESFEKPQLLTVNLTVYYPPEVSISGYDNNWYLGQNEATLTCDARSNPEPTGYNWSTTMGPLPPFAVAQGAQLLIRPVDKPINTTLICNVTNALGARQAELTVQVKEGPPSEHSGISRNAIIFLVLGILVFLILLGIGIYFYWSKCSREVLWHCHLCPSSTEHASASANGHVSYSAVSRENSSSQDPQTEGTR
Method: BLI experiments were performed in PBS supplemented with 0.1% (w/v) BSA, 0.002% (v/v) Tween 20 and 1% DMSO, with an Octet RED96 instrument (FortéBio), operating at 25 °C. The biotinylated PVR carrying a C-terminal AVITAG (CD5-H82E3, ACRO Biosystem) was loaded to saturation onto Super Streptavidin (SSA) biosensors (Pall/FortéBio), and blocked with 200 μL biotin (5 μg/mL) for 60 s. Before the assay, the PVR-labeled SSA sensors were pre-soaked in binding buffer for 30 min. The twenty-two small molecule compounds were preliminary screened for binding to PVR at a single concentration of 100 μM. […] The dissociation was monitored by washing the ligand biosensors from the analyte solution to binding buffer for 60 s. Double reference-subtracted sensorgrams were analyzed using Data Analysis 9.0 (Pall/Forte Bio), and binding responses at the end of the association phase were reported.

human TIGIT/PVR = target: T2, human TIGIT/PVR (Homo sapiens, UniProt P15151); assay: Cell based blocking assay, CHOK1-hTIGIT cells and human PVR-Fc; details: CHOK1-hTIGIT cells, highest concentration
T2 construct: purchased ACRO Biosystem CD5-H82F6; host or cells: PVR-Fc was purchased; TIGIT was expressed on CHO-K1 cells by lentiviral infection (CHOK1-hTIGIT)
T2 sequence (P15151 28-343 limits assumed): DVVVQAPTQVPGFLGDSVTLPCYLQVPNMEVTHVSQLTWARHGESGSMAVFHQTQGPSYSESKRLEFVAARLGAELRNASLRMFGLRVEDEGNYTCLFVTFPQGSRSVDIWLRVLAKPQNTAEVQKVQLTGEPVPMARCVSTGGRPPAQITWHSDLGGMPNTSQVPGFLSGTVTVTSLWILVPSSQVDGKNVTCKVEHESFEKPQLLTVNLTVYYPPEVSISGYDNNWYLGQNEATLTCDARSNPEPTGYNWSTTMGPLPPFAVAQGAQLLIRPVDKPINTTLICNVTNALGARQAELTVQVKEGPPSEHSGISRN
Method: Cell based blocking assay was performed according to the previous report [30]. […] Then the mixture of PVR protein and compounds were incubated with CHOK1-TIGIT cells for another 30 min, followed by incubation with detection antibody anti-human IgG-PE (eBioscience) for 30 min. Cells were then washed with FACS buffer to remove the unbound fluorescent antibodies, acquired on a FACS Caliber™ (BD Biosciences) and analyzed by FlowJo. […] Cells incubated with corresponding Fc tagged protein and anti-human IgG-PE served as positive control, while cells only incubated with anti-human Fc-PE served as negative control. The mean fluorescent intensity (MFI) was recorded for calculating the blocking efficiency as the formula: Blocking%=MFIof positive control−MFIof tested compounds/MFIof positive control×100%.

MC38 tumor = assay: Anti-tumor experiment and ex vivo assays, MC38 tumor-bearing mice; type: in vivo, C57BL/6 mice
Method: All mice experimental procedures were approved by the Ethics Committee of Zhengzhou University. Six-week-old female C57BL/6 mice (Vital River Laboratories, China) were maintained in a specific pathogen-free facility. Food and water were supplied ad libitum. Mice were acclimatized for about 1 week before the experiment. C57BL/6 mice were subcutaneously (s.c.) injected on the right flank with 1 × 10^6 syngeneic MC38 cells in 200 μL PBS. One week later, tumor-bearing mice were randomized into groups of negative control (normal saline with 3% DMSO and 0.5% Tween-80), 0.5, 1.5, 5 and 15 mg/kg of compounds or anti-TIGIT and isotype control groups. Mice were treated with 200 μL control or indicated compound through intraperitoneal (i.p.) injection every other day for 2 weeks, or with 200 μg anti-TIGIT (clone:1G9, Bioxcell) or isotype control mouse IgG (I5381, Sigma) through i.p. injection every 3 days for 2 weeks. Tumor sizes were measured using a digital caliper, and tumor volumes were calculated as the formula: V=1/2×alength×bwidth×cheight
For indicated immune cell depletion models, MC38 mice were injected with 250 μg anti-CD4 (clone: GK1.5), 200 μg anti-CD8 (clone: YTS169.4) or matched rat IgG control (I4131, Sigma), 200 μg anti-NK1.1 (clone: PK136) or matched mouse IgG control (I5381, Sigma) the day before the start of tumor inoculation, as well as weekly thereafter, resulting in a total of 3 injections per mouse. The depletion efficacy was confirmed by flow cytometry analysis with the blood sample of mice treated with indicated antibodies for 6 days. Mouse anti-CD45 FITC (clone: 30-F11, eBioscience), anti CD3 PerCP-eFluor710 (clone: 17A2, eBioscience), anti-CD8α APC (clone: 53–6.7, eBioscience), anti-CD4 APC (clone: GK1.5, eBioscience) and anti-NK1.1 PE (clone: PK136, eBioscience) were used.
Upon completion of treatment, MC38 tumor-bearing mice were sacrificed, and the tumors were dissected and digested by 100 U/mL collagenase IV (Invitrogen) and 100 U/mL Dnase I (Sigma) for 60 min, and then filtered through a 70 μm nylon cell strainer to single cell suspension. The cells were incubated with mouse anti-CD45 FITC (clone: 30-F11, eBioscience), mouse anti-CD3 PerCP-eFluor710 (clone: 17A2, eBioscience), and mouse anti-CD8α APC (clone: 53–6.7, eBioscience) to detect the frequency of infiltrating CD8^+ T cells. For functional assay, the tumor-infiltrating lymphocytes were isolated from tumor cell suspension by discontinuous Percoll density gradients (40 and 70%) (GE Healthcare). The isolated tumor-infiltrating lymphocytes, splenocytes and draining lymph node cells prepared by gentle mechanical disruption were stimulated with or without 20 ng/mL phorbol 12-myristate 13-acetate (PMA, Sigma) and 1 μMionomycin (Sigma) in the presence of protein transport inhibitor for 4 h. The following procedure of intracellular cytokine staining assay was performed as mentioned above, and the antibodies for the staining were mouse anti-CD3 PerCP-eFluor710, mouse anti-CD8α PE, and mouse anti-IFN-γ APC (clone: XMG1.2, eBioscience).

MC38 cells = assay: Cell viability assay (MTT); type: cell-based, murine; details: 12.5 to 100 μM, 3 days
Method: The cytotoxic effects of indicated compound on MC38 cells were determined by MTT assay. MC38 cells were seeded into 96-well plates at a density of 3000 cells/well and allowed to grow for adhesion. Cells were treated with medium with 1% DMSO as negative control or with a series dilution of indicated compound at a concentration range of 12.5 to 100 μM. Cell viability was ascertained using MTT reagent (Sigma) dissolved in 5 mg/mL PBS and incubated at 37 °C for 4 h in the following 3 days. Formazan crystals formed by viable cells were dissolved in 150 μL DMSO in each well. MTT reduction was quantified by measuring the absorbance at 490 nm.

[1] = Potential side effects in mice; type: in vivo; details: different concentrations administrated for at least one week

KD to PVR protein (BLI) (PVR; series of concentrations): could not fit a determined KD value
BLI response, primary screening (PVR; single concentration of 100 μM): relatively good response
Compound: O=C1/C(=C2\Nc3ccccc3C2=O)Nc2ccccc21 [SMC 2, Indigo]

Kd (PVR; series of concentrations): 42 µM
blocking efficacy of TIGIT/PVR (human TIGIT/PVR): 52%
Compound: COc1cc(/C=C/C(=O)CC(=O)/C=C/c2ccc(O)c(OC)c2)ccc1O [SMC 6, Curcumin]

Kd (PVR; series of concentrations): 5.9 µM
blocking efficacy of TIGIT/PVR (human TIGIT/PVR): extremely low blocking efficacy
Compound: O=C(O[C@@H]1Cc2c(O)cc(O)cc2O[C@@H]1c1ccc(O)c(O)c1)c1cc(O)c(O)c(O)c1 [SMC 22, Epicatechin gallate]

Compound: N[C@@H](Cc1cc(I)c(Oc2ccc(O)c(I)c2)c(I)c1)C(=O)O [SMC 14, Liothyronine]
anti-tumor effects, MC38 tumor model (MC38 tumor; 0.5 mg/kg i.p. every other day): almost no anti-tumor effects
anti-tumor effects with CD4+, CD8+ T and NK cells depleted (MC38 tumor; 5 mg/kg, MC38 model, depletion antibodies): almost disappeared
anti-tumor effects, MC38 tumor model (MC38 tumor; 15 mg/kg compared with 5 mg/kg, i.p. every other day): equivalent
MC38 tumor growth (MC38 tumor; high dose 5 mg/kg i.p. every other day): significantly inhibit
MC38 tumor growth (MC38 tumor; low dose 1.5 mg/kg i.p. every other day): significantly inhibit
cell viability of MC38 cells (MTT) (MC38 cells): did not impact the cell viability
side effects on mental state, weight and diet of the mice [1]: no obvious effects
